This assay concerns CEM cells HIV-1 protection, formazan growth assay. In words: NCI AIDS Antiviral Assay. The following applies: for IC50: measured here: growth of uninfected CEM cells. The protocol: The ability of compounds to protect human CEM cells from HIV-1 infection is measured as a screen for new compounds capable of inhibiting the HIV virus. Five concentrations of drug were tested on uninfected and infected cells and cell growth was measured using a soluble formazan assay. […] Compounds that provided at least 50% protection were retested. Compounds that provided at least 50% protection on retest were listed as moderately active. Compounds that reproducibly provided 100% protection were listed as confirmed active. […] Note that the inability to provide protection could be due to toxicity.

Calls of active or inactive are those of the source.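 How the source made its calls: active means compounds giving half or more protection of infected cells from virus-caused growth loss, again on retest; inactive means the rest.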

Consider `CCOC(=O)C1(c2ccccc2)CCC(=O)CC1`, for which the EC50 was above 380 µM and the IC50 is above 380 µM.

Turning to `O=S(=O)(NCCSSCCNS(=O)(=O)c1ccc(Cl)cc1)c1ccc(Cl)cc1`, the EC50 is above 200 µM and the IC50 turned out to be 17.8 µM.

As to `O=c1c2ccccc2nc(-c2ccccc2Cl)n1NC1OC(CO)C(O)C(O)C1O` (centres undefined), the result was inactive.

On to `CCCC(=O)O[C@@H]1C(C)C2(O)C3C=C(C)C(=O)[C@@]3(O)CC(CO)=C[C@H]2C2C(C)(C)C21OC(=O)CCC` (some centres undefined), for which the outcome was inactive.

With `N#CC(=C(c1ccccc1)c1ccccc1)c1ccccc1`, the EC50 is above 151 µM and the IC50 is above 151 µM.

`CCSc1nc2n(c(=S)n1)CCN2C`: the EC50 is above 708 µM and the IC50 was found to be 138 µM.

`O=c1[nH]c2ccccc2c(O)c1Cc1ccccc1`: the EC50 was above 200 µM and the IC50 was above 200 µM.

In the case of `CC(C)CCOC(=O)NC(Nc1ccc(F)cc1)(C(F)(F)F)C(F)(F)F`, the result was inactive.

Consider `OC/C=C/c1ccc(Cl)cc1`, for which the result was inactive.

Turning to `Cc1cc(-c2ccc(C(=O)O)[nH]2)on1`, the EC50 is above 200 µM and the IC50 was found to be 69.2 µM.

With `Cc1cc(N(CCC#N)CCC#N)ccc1/C=C1N=C(/C=C\c2ccccc2)OC\1=O`, the EC50 is above 17.8 µM and the IC50 is above 17.8 µM.

Take `N#C/C(=C/N1CCNC1=S)C(N)=O`: the EC50 was above 200 µM and the IC50 was above 200 µM.

Consider `CCOC(=O)N(c1ccccc1)N(CC)C(=O)/C(C)=N/Nc1ccc([N+](=O)[O-])cc1`, for which the result was inactive.

`O=S(=O)(O)CS(=O)(=O)O`: the EC50 was above 200 µM and the IC50 was above 200 µM.

In the case of `OC[C@@H](O)[C@@H](O)c1cnn(-c2ccccc2)n1`, the EC50 was above 200 µM and the IC50 was above 200 µM.

As to `CCCc1cc(=O)oc2c3c(c4c(c12)OC(C)(C)C=C4)O[C@H](C)[C@H](C)[C@@H]3O`, the EC50 is above 87.1 µM and the IC50 was found to be 6.46 µM.

With `CCOC(=O)c1sc(C(=O)OCC)c2c1-c1cccc3cccc-2c13`, the EC50 was above 200 µM and the IC50 was above 200 µM.

Turning to `CO[C@H]1C[C@@H]2CC[C@@H](C)[C@@](O)(O2)C(=O)C(=O)N2CCCC[C@H]2C(=O)O[C@H]([C@H](C)C[C@@H]2CC[C@@H](O)[C@H](OC)C2)CC(=O)[C@H](C)C=C(C)[C@@H](O)[C@@H](OC)C(=O)[C@H](C)C[C@H](C)/C=C/C=C/C=C1C`, the EC50 is above 14.1 µM and the IC50 was found to be 7.59 µM.

With `Cc1cc(NC(=O)c2ccc(N)cc2)ccc1N=Nc1ccc2c(O)c(N=Nc3ccc4cc(S(=O)(=O)O)ccc4c3)c(S(=O)(=O)O)cc2c1`, the EC50 was 25.1 µM and the IC50 was above 100 µM.

Take `CCOC(=O)c1c(Br)c(-c2ccc(OC)cc2)c(Br)n1C`: the EC50 is above 200 µM and the IC50 was 12.6 µM.

As for `CCN(CC)CCC(=O)NC1c2ccccc2Oc2c(C)cccc21` (centres undefined), the EC50 was above 275 µM and the IC50 is 58.9 µM.

For `C#CCOC(=O)c1ccccc1O`, the EC50 was above 200 µM and the IC50 was above 200 µM.

As to `Nc1ncnc2c1ccn2C/C=C\CO`, the EC50 is above 200 µM and the IC50 was above 200 µM.

With `O=C1/C(=C\c2ccc([N+](=O)[O-])cc2)N(S(=O)(=O)c2ccccc2)c2ncccc21`, the EC50 was above 200 µM and the IC50 was 13.5 µM.

For the compound `NNc1cn[nH]c(=O)c1Cl`, the EC50 was above 200 µM and the IC50 is above 200 µM.

With `C[N+]12C=CC=C1C(N1CCCC1)c1scc(-c3ccc(F)cc3)c12` (centres undefined), the EC50 was above 200 µM and the IC50 is 24.5 µM.

In the case of `N#CC1(C#N)C(c2ccccc2)NC23CCCCC2C1(C#N)C(=O)N3` (centres undefined), the EC50 was above 200 µM and the IC50 is 81.3 µM.

The compound `S=c1sc2ccccc2n1CN1CCN(Cc2ccccc2)CC1` yielded an EC50 above 200 µM and an IC50 above 200 µM.

Turning to `COC(=O)C1C(NCc2ccccc2)=CC(C)(C)C(C(=O)OC)C1c1ccccc1` (centres undefined), the EC50 is above 200 µM and the IC50 is 166 µM.

Take `Cc1cccc2c1C(=O)OC2(C)c1cccc2ccccc12` (centres undefined): the result was inactive.

Regarding `COc1cc(C(=O)C/C(CCC(=O)Nc2ccccc2[N+](=O)[O-])=N\NC(=O)CC#N)ccc1O`, the EC50 is above 537 µM and the IC50 is 224 µM.

As to `CCN(CC)c1ccc2c(c1)Oc1ccc(N(C(C)=O)c3ccccc3)cc1C21OC(=O)c2ccccc21` (centres undefined), the EC50 is above 200 µM and the IC50 came to 6.03 µM.

As to `CCC1(C(=O)OC)CCc2c(OC)ccc(OC)c2C1=O` (centres undefined), the result was inactive.

As for `O=S(Cc1ccccc1)/C(=C/NC(=S)Nc1ccccc1)c1ccccc1` (centres undefined), the EC50 was 182 µM and the IC50 is above 200 µM.

For the compound `CC(C)(C)C(=O)Nc1ccccc1C(=O)C12CCC3(CCOCc4ccccc4)C=CCN(C(=O)O1)C32` (centres undefined), the EC50 was 15.5 µM and the IC50 was found to be 42.7 µM.

Turning to `CSc1nnc2nc[nH]n12`, the EC50 is above 200 µM and the IC50 was above 200 µM.

As for `N/C(=N/N=C\c1nccc2ccccc12)NO`, the outcome was inactive.

Regarding `COc1ccc(C)cc(=O)c1O`, the EC50 is above 251 µM and the IC50 is 14.5 µM.

Take `Brc1ccc(N=NN2CCCC2)cc1`: the EC50 was above 200 µM and the IC50 amounted to 38.9 µM.

Take `O=C(Cc1nc2ccccc2s1)C(=O)Nc1ccc(Cl)cc1Cl`: the outcome was inactive.

As to `O=C(O)/C=C/c1ccc(OS(=O)(=O)O)cc1`, the EC50 was above 200 µM and the IC50 is above 200 µM.

`COC(=O)C12CCC(C)(C)CC1C1=CCC3C4(C)CC(O)C(O)C(C)(C(=O)OC)C4CCC3(C)C1(CO)CC2` (centres undefined): the outcome was inactive.

Turning to `COC1(OC)c2no[n+]([O-])c2C(OC)(OC)c2c1no[n+]2[O-]`, the EC50 is above 200 µM and the IC50 is 3.89 µM.

Take `O=C1CCN2CCC(=O)c3c2c(cc2ccccc32)N1`: the EC50 was above 26.9 µM and the IC50 was above 26.9 µM.

Take `CN=c1ss/c(=N\C(=S)N(C)C)n1C1CCCCC1`: the outcome was inactive.

In the case of `O=S(=O)(c1ccc(NC(=S)Nc2ccccc2)cc1)c1ccc(NC(=S)Nc2ccccc2)cc1`, the EC50 was above 200 µM and the IC50 is above 200 µM.

As to `CC1CCCN(CCSSCCN2CCCC(C)C2)C1` (centres undefined), the EC50 is above 200 µM and the IC50 was 70.8 µM.

With `COc1ccc(C(=O)c2ccc(OC)c(S(=O)(=O)N(C)C)c2)cc1S(=O)(=O)N(C)C`, the EC50 was above 79.4 µM and the IC50 is above 79.4 µM.

On to `COC(=O)C1Cc2c([nH]c3ccccc23)-c2[nH]c3ccccc3c2CC(NC(C)=O)C(=O)N2CCCC2C(=O)N1` (centres undefined), for which the EC50 was above 200 µM and the IC50 was 36.3 µM.

Regarding `COC(=O)C(CCC1(C)OCCO1)=[N+]=[N-]`, the EC50 is above 251 µM and the IC50 is above 251 µM.

Consider `Nc1ccc2nc3ccc(O)cc3nc2c1`, for which the EC50 is above 200 µM and the IC50 was found to be 17 µM.

In the case of `c1ccc(OCCSCCCCCCCCCCSCCOc2ccccc2)cc1`, the EC50 is above 8.51 µM and the IC50 was above 8.51 µM.

As to `Nc1nc(N)c2cc(-c3ccccc3)cnc2n1`, the EC50 was above 200 µM and the IC50 was found to be 15.8 µM.

As for `N#C/C(=C\NC(=S)NCc1ccccc1)c1nc2ccccc2s1`, the EC50 is above 200 µM and the IC50 was 47.9 µM.

Regarding `O=C(O)CSc1n[nH]c(-c2ccccc2O)n1`, the EC50 is above 372 µM and the IC50 stood at 182 µM.

In the case of `O=C(O)COc1c2occc2cc2ccc(=O)oc12`, the EC50 was above 347 µM and the IC50 was above 347 µM.

`COc1cc(Nc2cc(Cl)cc(Cl)c2)nc(N)n1`: the EC50 was above 200 µM and the IC50 stood at 27.5 µM.

As for `O=C(NC1C(=O)NC(CCc2ccccc2)NC1=O)OCc1ccccc1` (centres undefined), the EC50 is above 200 µM and the IC50 is above 200 µM.

Consider `Cn1c(N)nc(-c2ccc(Cl)cc2)c1SSc1c(-c2ccc(Cl)cc2)nc(N)n1C`, for which the EC50 was above 200 µM and the IC50 is above 200 µM.

As for `CC12C(=O)N(CCN)C(=O)C1C1c3ccccc3C2c2ccccc21` (centres undefined), the outcome was inactive.

Turning to `C=C(C)C1CC=C(C)C(O)([C@@]2(O)C[C@H](C(=C)C)CC=C2C)C1` (some centres undefined), the result was inactive.

As for `CCn1c2c(n(CC)c1=S)-c1c(n(CC)c(=S)n1CC)SSSS2`, the EC50 is above 58.9 µM and the IC50 is above 58.9 µM.

For the compound `COc1cccc(-n2c3nc(=O)n(C)c(=O)c-3nc3ccccc32)c1`, the result was inactive.

Turning to `CCOC(=O)/C=C1\Nc2ccccc2C(c2ccccc2)=NC1OC(C)=O` (centres undefined), the EC50 was above 20 µM and the IC50 was above 20 µM.

On to `Oc1ccccc1/C=N/N1C(=S)N(C23CC4CC(CC(C4)C2)C3)C(=Nc2ccccc2)C1=Nc1ccccc1`, for which the EC50 is above 200 µM and the IC50 is 85.1 µM.

Regarding `Nc1nc(N)c2nc(-c3ccco3)cnc2n1`, the outcome was inactive.

In the case of `N#CC(O)CCOCc1ccccc1` (centres undefined), the EC50 was above 200 µM and the IC50 is 53.7 µM.

With `CCCC1OC(=O)c2ccccc2S1` (centres undefined), the EC50 was above 200 µM and the IC50 is above 200 µM.

For the compound `NC(=O)NNC(=O)NC12CC3CC(CC(C3)C1)C2`, the outcome was inactive.

Regarding `COc1ccc(C(=O)C(CO)Oc2ccccc2OC)cc1OC` (centres undefined), the EC50 is above 759 µM and the IC50 came to 513 µM.

With `CS(=O)(=O)NC12CCC(c3ccccc31)c1ccccc12`, the EC50 was above 200 µM and the IC50 is above 200 µM.

Turning to `CCOP(=O)(OCC)/C(C#N)=C/c1ccc2ccccc2c1`, the EC50 is above 22.9 µM and the IC50 is above 22.9 µM.

On to `CCc1oc2ccccc2c1C(=O)c1ccc(O)cc1`, for which the EC50 is above 324 µM and the IC50 is 53.7 µM.

As for `CCCCCCOc1ccc(C(=O)NO)cc1`, the EC50 was above 200 µM and the IC50 worked out at 13.2 µM.

As for `COc1cc(OC)c2c(=O)c3cccc(C)c3n(C)c2c1`, the EC50 is above 200 µM and the IC50 was found to be 95.5 µM.

(Values after PubChem BioAssay AID179 (DTP/NCI, 2004).)
